# Source: patent US11944628B2, “Methods for the use of low-dose immune modulators transiently for treating patients undergoing protein replacement therapy” (Duke University, priority 2017, dated 2024)
# Values joined by “and” are separate entries in the source; they are usually repeats but may differ in a detail not shown here. Identical values can stand only once. “Also recorded” adds a separate entry of the source. Marks after values point to notes of the source that are not given here.
# How the values were obtained:
# [1] = system: anti-rhGAA IgG antibodies; test: Anti-rhGAA IgG antibody titers over time (ELISA, confirmed by radioimmunoprecipitation) in Pompe disease patients on ERT with TLD-MTX or on ERT monotherapy (comparators); assay type: in vivo, human; conditions: for Overall immune tolerance outcome versus historical data: cohort conclusion in words; for Development of HSAT: methotrexate recipients: Example 2 (n=17), Example 3 (n=14, by data cutoff Jun. 16, 2017)
# Method: Methotrexate at 0.4 mg/kg body weight was administered subcutaneously (or orally if subcutaneous administration was not possible) on three consecutive days/MTX cycle/infusion; with the first three ERT infusions (i.e., on Days 0, 14, and 28 for patients infused EOW) for a total of 3 cycles. On the day of ERT infusion, methotrexate was administered 15 minutes (if subcutaneous) or 1 hour (if oral) before infusion initiation and again on the following 2 days. To exemplify the schedule, in a patient receiving ERT infusion EOW, methotrexate was administered on Days 0, 1, and 2 (first cycle); Days 14, 15, and 16 (second cycle), and Days 28, 29, and 30 (third cycle). As stated earlier, the dose and frequency of ERT could be increased at the discretion of the treating physician, based on patients' clinical and IAR status, in which case methotrexate cycles were adjusted accordingly (see FIG. 2 for details).
# Anti-rhGAA IgG antibodies were determined by Sanofi Genzyme (Framingham, MA, USA) using enzyme-linked immunosorbent assays and confirmed using radioimmunoprecipitation as described previously (Kishnani et al. (2006) J. Pediatr. 149:89-97). Antibody analyses were recommended to be performed at Days −1, 28, 56, 84, 112, 140, 168, 196, 224, 252, 280, 308, 336, and 364.
# rhGAA IgG titers were determined over time. Patients were classified into HSAT (≥51,200 on ≥2 occasions at or beyond 6 months on ERT), sustained intermediate titer (SIT) (≥12,800 and <51,200 within the first year of ERT), and low titer (LT; ≤6,400 within the first year of ERT) groups based on the longitudinal anti-rhGAA IgG titers. […] Medians and ranges were determined for baseline, peak, and last titers, although our focus was on longitudinal titers through time because sustained titers affect clinical response.
# The comparators received rhGAA alone. The GAA variant data and age at ERT initiation were compared with our cohort of TLD-MTX recipients. Immune responses over time were classified into HSAT, SIT, and LT as defined above, and time to seroconversion, peak titers, titers at Weeks 12, 24, and 52 were compared with our present cohort of TLD-MTX recipients.
# [2] = Safety: hematologic and biochemical analyses (ANC, AST, ALT), adverse events and infections in methotrexate recipients; assay type: in vivo, human; conditions: for Neutropenia (ANC <750 cells/mm^3), percent of patients: transient; for ALT > 3x baseline (Yes/No) / ANC < 750 cells/mm^3 (Yes/No) / AST > 3x baseline (Yes/No): first 6 weeks on alglucosidase alfa
# Method: On Days −1 (baseline), 13, 28, 42, 56, 84, 168, 252, 336, and 364, blood samples were recommended to be collected for hematologic and biochemical analyses for patients receiving ERT EOW. The sampling schedule was modified for patients receiving ERT weekly (FIG. 2). Complete and differential blood counts and platelets were evaluated and monitored for platelet counts <50,000/mm^3, ANC <750/mm^3, and treatment-resistant infections. Biochemical analyses monitored alanine aminotransferase (ALT), aspartate aminotransferase (AST), creatine kinase (CK), and CK-MB levels. Post-treatment increases in AST and ALT levels were noted if exceeding three times their respective baseline levels.
# [3] = system: anti-rhGAA IgG response; conditions: methotrexate alone, transient low dose co-initiated with ERT, Joseph et al. (2008); cited from earlier work
# [4] = individual SIT patients IOPD13 and IOPD14 (patient named in the cell), listed as TLD-MTX
# [5] = individual atypical IOPD patients
smiles,measurement,setting,value
CN(Cc1cnc2nc(N)nc(N)c2n1)c1ccc(C(=O)N[C@@H](CCC(=O)O)C(=O)O)cc1 [methotrexate],Median last titer,"[1]; 17 CRIM-positive IOPD, atypical IOPD and LOPD methotrexate recipients (Example 2), median ~68 weeks on alglucosidase alfa","100 (range, 0-6400) and 100 (range 0-6400)"
same,Patients remaining seronegative,[1]; Example 2 cohort of 17 patients,1 of 17
same,Highest observed titer in the study,"[1]; Example 2 cohort, IOPD patient (Patient 3) given one methotrexate dose each in cycles 2 and 3","12,800"
same,Percent of patients in HSAT group,"[1]; HSAT: titers >=51,200 on >=2 occasions at or beyond 6 months on ERT, IOPD",0%
same,Titer,"[1]; IOPD Patient 3, Week 49",400
same,Titer,"[1]; IOPD Patient 3, by Week 20",3200
same,Percent of patients who developed HSAT or SIT,"[1]; IOPD, comparator group n=37, TLD-MTX group n=14",14.2%
same,Median peak titers,"[1]; LT group, IOPD","3,200"
same,Median titers (Week 12),"[1]; LT group, IOPD","1,600"
same,Median titers (Week 24),"[1]; LT group, IOPD",600
same,Median titers (Week 52),"[1]; LT group, IOPD, seropositive titers <100 deemed 50",250***
same,Percent of patients in SIT group,"[1]; SIT: titers >=12,800 and <51,200 within first year of ERT, IOPD",14.2% (n = 2)
same,Overall immune tolerance outcome versus historical data,[1]; listed as TLD-MTX,successfully blunted the immune response overall
same,Overall immune tolerance outcome versus historical data,[1]; listed as low-dose methotrexate,successfully induced immune tolerance
same,Peak antibody titer since immune tolerance induction,"[1]; individual IOPD patients (one line per patient), >6 months follow-up, methotrexate 0.4 mg/kg, 3 cycles, with alglucosidase alfa","3,200 (3×) and <100 and 200 and 800 (3×) and 6,400"
same,Peak antibody titer since immune tolerance induction,"[1]; individual IOPD patients (one line per patient), >6 months follow-up, methotrexate 0.4 mg/kg, 3 cycles, with alglucosidase alfa, single methotrexate dose in cycles 2 and 3","12,800*"
same,Last antibody titer,"[1]; individual IOPD patients (one line per patient), last titer at 42-122 weeks on ERT","0 (4×) and 400 and <100 and 100 (2×) and 6,400"
same,Last antibody titer,"[1]; individual IOPD patients (one line per patient), last titer at 42-122 weeks on ERT, single methotrexate dose in cycles 2 and 3",400
same,Peak antibody titer,"[1]; individual IOPD patients IOPD1-IOPD14 (one line per patient) on TLD-MTX protocol, >6 months follow-up","12,800* and 3,200 (4×) and 200 (2×) and 800 (3×) and 6,400 and 51,200** and 25,600*** and <100"
same,Last antibody titer,"[1]; individual IOPD patients IOPD1-IOPD14 on TLD-MTX protocol, last titer at 32-122 weeks on ERT","400 (3×) and 0 (4×) and <100 and 100 (2×) and 6,400 and 200 and 12,800 and 12.800"
same,Peak antibody titer since immune tolerance induction,"[1]; individual LOPD patients (one line per patient), >6 months follow-up","1,600 and 800"
same,Last antibody titer,"[1]; individual LOPD patients, last titer at 63 and 27 weeks on ERT",0 and 400
same,Titer (Week 52),[1]; individual SIT patient IOPD13,"IOPD13: 12,800"
same,Peak titer,[1]; [4],"IOPD13: 51,200;; also recorded: IOPD14: 12,800"
same,Titer (Week 12),[1]; [4],"IOPD13: 12,800;; also recorded: IOPD14: 25,600"
same,Titer (Week 24),[1]; [4],"IOPD13: 12,800;; also recorded: IOPD14: 12,800"
same,Peak antibody titer since immune tolerance induction,"[1]; individual atypical IOPD patients (one line per patient), >6 months follow-up","3,200 and Never and <100 and 800 and 200"
same,Last antibody titer,"[1]; individual atypical IOPD patients, last titer at 58-145 weeks on ERT",400 and 0 and <100 and 200 (2×)
same,"Peak antibody titer, median",[1]; median of 14 IOPD patients on TLD-MTX protocol,"3,200"
same,"Last antibody titer, median","[1]; median of 14 IOPD patients on TLD-MTX protocol, median time on ERT ~71 weeks","150 (range, 0-12,800)"
same,Development of HSAT,[1],No patients who received methotrexate developed HSAT; also recorded: No methotrexate recipients developed HSAT
same,Development of HSAT,[1]; listed as TLD-MTX,No patients who received TLD-MTX developed HSAT
same,Maximal titer,"[1]; one methotrexate-treated LOPD patient, Weeks 16 and 20","1,600"
same,"Titers remaining (seropositive on screening assay, below limit of titer measurement)",[1]; patient IOPD2,< 100
same,Titer,"[1]; patient IOPD13, Week 7 only","51,200"
same,Peak titer after the cutoff date (HSAT developed),"[1]; patient IOPD13, Week 76","102,400"
same,Titer,"[1]; patient IOPD13, Weeks 12 and 37","25,600"
same,Titer,"[1]; patient IOPD13, Weeks 14, 17, 23, 31 and 44","12,800"
same,Titer,"[1]; patient IOPD14, Week 28 only","25,600"
same,Last titer after the cutoff for data collection,"[1]; patient IOPD14, Week 36","6,400"
same,Titer,"[1]; patient IOPD14, Weeks 12, 16, 24 and 32","12,800"
same,Titer,"[1]; same LOPD patient, Week 63",0
same,Titer,"[1]; same LOPD patient, Weeks 32-55",100
same,Titer,"[1]; the other LOPD patient, Week 27",400
same,Maximal titer,"[1]; the other methotrexate-treated LOPD patient, Weeks 9-16",800
same,"Neutropenia (ANC <750 cells/mm^3), percent of patients",[2]; 2 of 9 IOPD patients with ANC data (Example 2),22%
same,"Neutropenia (ANC <750 cells/mm^3), percent of patients",[2]; 2 of 13 IOPD patients with ANC data (Example 3),15.4%
same,ALT > 3x baseline (Yes/No),[2]; individual IOPD patients,Yes (3×) and No (5×)
same,ANC < 750 cells/mm^3 (Yes/No),[2]; individual IOPD patients,Yes (2×) and No (7×)
same,AST > 3x baseline (Yes/No),[2]; individual IOPD patients,No (7×) and Yes
same,ALT > 3x baseline (Yes/No),[2]; individual LOPD patients,No
same,ANC < 750 cells/mm^3 (Yes/No),[2]; individual LOPD patients,No
same,AST > 3x baseline (Yes/No),[2]; individual LOPD patients,No
same,ALT > 3x baseline (Yes/No),[2]; [5],No
same,ANC < 750 cells/mm^3 (Yes/No),[2]; [5],No
same,AST > 3x baseline (Yes/No),[2]; [5],No
same,Overall tolerability,[2]; methotrexate recipients,tolerated the methotrexate protocol reasonably
same,Serious AEs related to methotrexate,[2]; methotrexate recipients,No serious AEs were related to methotrexate
same,Patients with hospitalizations related to infections around the time of methotrexate administration,"[2]; patients with infection data available (Example 3), resolved",Two of nine
same,Effect on anti-rhGAA IgG response,[3],sustainably reduced anti-rhGAA IgG response
